Format in all cases: cell-based
In data set [1] the test system is plant bodies. As to the kind of experiment: Influence of agent concentration on growth of plant (solid culture medium, FIG. 6). Particulars: 30 days. An excerpt:
The influence of a change in the concentrations of the agents used for sterilizing the culture medium on the growth of plants was investigated. The culture condition in this experiment was as follows:
Culture medium components: solid culture medium dosed with Otsuka-A
Number of plant bodies: 10
Numerical values: average±standard deviation
Sterilizing method: one-time dosing mode
Inoculating method (Culturing method): the method shown in FIG. 4 was used, with SE-P2000Cl140/SE-P2000Cl140 as the first/second microbicidal liquids, respectively.
In FIG. 6, the “Autoclave (Conventional Method)” indicates comparative examples, in which an explant which had undergone a microbicidal treatment in an autoclave was placed in a liquid culture medium and cultured in a clean bench.

The test system of data set [2] is An (filamentous fungus, presumed to be Aspergillus niger complex). In words: Sterilizing effect of microbicidal liquids in the inoculating process (FIG. 9), An. As to conditions: bacteria inoculated on potato explant, explant treated, 14 days. As for the experimental part:
(§1) An experiment was conducted to determine how the sterilizing effect after inoculation is related to the concentrations and combination of the agents used in the microbicidal liquid for explants and the microbicidal liquid for culture vessels. The experimental condition was as follows:
(§2) Solid culture medium: dosed with Otsuka-A
(§3) Sterilizing method: autoclave
(§4) Method of inoculation of bacteria: on culture medium surface [as for “B5” and “S3”, 50 μL per test tube of the bacterial suspension was dropped onto the surface of the culture medium; and as for “An”, 10 mg per test tube of either a conidial powder or a conidial powder diluted with a-starch to a predetermined dilution ratio was poured onto the culture medium]; or on explant [as for “B5” and “S3”, the explant was immersed in the bacterial suspension (whereby 10 μL per explant was attached); and as for “An”, the explant was coated with either a conidial powder or a conidial powder diluted with a-starch to a predetermined dilution ratio (whereby 5 mg per explant was attached)]

Data set [3] concerns B5 strain, presumed to be Bacillus subtilis. As to the kind of experiment: Sterilizing effect of microbicidal liquids in the inoculating process (FIG. 9), B5. Particulars: inoculated on potato explant; explant treated with microbicidal liquid (Cap or Nata 10000 mg/L or higher). The protocol: as §1, §2, §3, §4
The test system of data set [4] is S3 strain, presumed to be Serratia sp. As to the kind of experiment: Sterilizing effect of microbicidal liquids in the inoculating process (FIG. 9), S3. Particulars: inoculated on potato explant; explant treated with microbicidal liquid (Ox 200 mg/L or higher; Nata 10000 mg/L or higher). The protocol: as §1, §2, §3, §4
For data set [5], the system named is external bacteria. In words: Occurrence rate of microbial contamination of liquid culture medium after sterilization (FIG. 14). As to conditions: explants inoculated in a common room, no bacteria inoculated. As for the experimental part:
The contamination rate by external bacteria after sterilization of a liquid culture medium was investigated. In any cases, the result was obtained under the condition that the inoculation of explants was performed in a common room with no bacteria inoculated. […] The microbial contamination rate increased when any one of the following agents was omitted: SE-P, Nisin, Ox, Nata, Cap, Imp10 and Cl7.

Data set [6] concerns microbial colony formation (bacteria, filamentous fungi). As to the kind of experiment: Microbial recontamination of sterilized solid culture medium after solidification (FIG. 8). The protocol: A sterilized culture medium (Otsuka-A solid culture medium) was placed in 50 test tubes held in a tube stand and kept intact on a standard laboratory table (at temperatures of 14-24° C.), and the temporal change in the degree of microbial colony formation was investigated.

Turning to `C[C@@H]1C/C=C/C=C/C=C/C=C/[C@H](O[C@@H]2O[C@H](C)[C@@H](O)[C@H](N)[C@@H]2O)C[C@@H]2O[C@](O)(C[C@@H](O)C[C@H]3O[C@@H]3/C=C/C(=O)O1)C[C@H](O)[C@H]2C(=O)O` [Natamycin], the “concentration that did not negatively affect growth” value in data set [1] was not above 100 µg/mL. In data set [2], the “concentration in microbicidal liquid preventing An colony formation to some extent” value is recorded as not below 10000 mg/L. Further, the “formation of B5 colonies” value in data set [3] is recorded as “could not prevent”. The “formation of S3 colonies” value in data set [4] was “could not prevent”. Further, the “microbial contamination rate when the agent was omitted” value in data set [5] is “increased”. Further, the “open storage of the culture” value in data set [6] (Natamycin in addition to P1670, Nisaplin and wettable powder STARNER, no ZonenC) is “open storage of the culture was not possible”. Also, the “newly invasion of filamentous fungi” value in data set [6] (used in addition to P1670, Nisaplin and wettable powder STARNER) is given as “dramatically decreased”.

As for Egg-white lysozyme, the “need of adding the agent to prevent microbial contamination” value in data set [5] is listed as “not necessary”.

The values above are taken from patent publication US20160264932A1, “METHOD FOR PREPARING CULTURE MEDIUM FOR CULTURING PLANT TISSUE, METHOD FOR CULTURING PLANT TISSUE, STERILIZING AGENT, MICROBICIDAL AGENT, AND CULTURE MEDIUM COMPOSITION FOR CULTURING PLANT TISSUE” (priority 2013, published 2016).
